Blank lines part the entries; values can stand above or below the molecule they belong to.
What was measured:
Carbonic anhydrase 1 [1] = target: T1, Carbonic anhydrase 1 (Homo sapiens, UniProt P00915); experiment: Inhibition of human carbonic anhydrase 1 esterase activity by spectrophotometry
Carbonic anhydrase 2 [2] = target: T2, Carbonic anhydrase 2 (Homo sapiens, UniProt P00918); experiment: Inhibition of human carbonic anhydrase 2 esterase activity by competitive Lineweaver-Burke plot
Carbonic anhydrase 2 [3] = target: T2, Carbonic anhydrase 2; experiment: Inhibition of human carbonic anhydrase 2 esterase activity by spectrophotometry
Carbonic anhydrase 1 [4] = target: T1, Carbonic anhydrase 1; experiment: Inhibition of human carbonic anhydrase 1 esterase activity by uncompetitive Lineweaver-Burke plot
Carbonic anhydrase 2 [5] = target: T2, Carbonic anhydrase 2; experiment: Inhibition of human carbonic anhydrase 2 esterase activity by non-competitive Lineweaver-Burke plot
Carbonic anhydrase 1 [6] = target: T1, Carbonic anhydrase 1; experiment: Inhibition of human carbonic anhydrase 1 esterase activity by noncompetitive Lineweaver-Burke plot
Carbonic anhydrase 2 [7] = target: T2, Carbonic anhydrase 2; experiment: Inhibition of human carbonic anhydrase 2 esterase activity by uncompetitive Lineweaver-Burke plot
Carbonic anhydrase 1 [8] = target: T1, Carbonic anhydrase 1; experiment: Inhibition of human carbonic anhydrase 1 esterase activity by competitive Lineweaver-Burke plot

T1 sequence (P00915 whole entry): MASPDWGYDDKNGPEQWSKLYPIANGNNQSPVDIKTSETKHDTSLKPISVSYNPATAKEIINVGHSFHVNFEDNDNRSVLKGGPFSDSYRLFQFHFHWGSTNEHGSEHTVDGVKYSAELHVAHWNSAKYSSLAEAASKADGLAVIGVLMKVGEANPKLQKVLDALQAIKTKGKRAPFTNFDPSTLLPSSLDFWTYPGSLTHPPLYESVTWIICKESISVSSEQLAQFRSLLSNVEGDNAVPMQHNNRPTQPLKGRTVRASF

Structure (SMILES): Nc1ccc(C(=O)O)c(O)c1 [AMINOSALICYLIC ACID]
Ki (Carbonic anhydrase 2 [5]): 1230 µM | IC50 (Carbonic anhydrase 1 [1]): 130 µM | Ki (Carbonic anhydrase 1 [6]): 240 µM | IC50 (Carbonic anhydrase 2 [3]): 750 µM

Structure (SMILES): O=C(O)c1c(O)cc([N+](=O)[O-])cc1[N+](=O)[O-]
IC50 (Carbonic anhydrase 1 [1]): 7.64 µM | Ki (Carbonic anhydrase 1 [6]): 14.8 µM

Structure (SMILES): Cc1cccc(C(=O)O)c1O [HYDROXYTOLUIC ACID]
Ki (Carbonic anhydrase 2 [7]): 10600 µM | IC50 (Carbonic anhydrase 1 [1]): 3070 µM | Ki (Carbonic anhydrase 1 [6]): 11400 µM | IC50 (Carbonic anhydrase 2 [3]): 4700 µM

Structure (SMILES): O=C(O)c1cc(-c2ccc(F)cc2F)ccc1O [DIFLUNISAL]
IC50 (Carbonic anhydrase 1 [1]): 3.38 µM | Ki (Carbonic anhydrase 1 [6]): 8.45 µM

Structure (SMILES): O=C(O)c1cc(/N=N/c2ccc(S(=O)(=O)Nc3ccccn3)cc2)ccc1O [SULFASALAZINE]
Ki (Carbonic anhydrase 2 [5]): 8.72 µM | IC50 (Carbonic anhydrase 1 [1]): 3.04 µM | Ki (Carbonic anhydrase 1 [6]): 6.87 µM | IC50 (Carbonic anhydrase 2 [3]): 4.49 µM

Now from value to molecule:

IC50 (Carbonic anhydrase 1 [1]): 290 µM | Ki (Carbonic anhydrase 2 [2]): 1060 µM | IC50 (Carbonic anhydrase 2 [3]): 720 µM | Ki (Carbonic anhydrase 1 [4]): 480 µM
Structure (SMILES): O=C(O)c1ccc(S(=O)(=O)O)cc1O

IC50 (Carbonic anhydrase 1 [1]): 2710 µM | Ki (Carbonic anhydrase 1 [6]): 7530 µM
Structure (SMILES): CC(=O)Oc1ccccc1C(=O)O [ASPIRIN]

Ki (Carbonic anhydrase 2 [5]): 1920 µM | IC50 (Carbonic anhydrase 1 [1]): 420 µM | Ki (Carbonic anhydrase 1 [8]): 770 µM | IC50 (Carbonic anhydrase 2 [3]): 290 µM
Structure (SMILES): O=C(O)c1cc(S(=O)(=O)O)ccc1O [SULFOSALICYLIC]

IC50 (Carbonic anhydrase 1 [1]): 4.07 µM | Ki (Carbonic anhydrase 1 [4]): 4.16 µM
Structure (SMILES): O=C(O)c1cc(Cl)ccc1O [5-CHLOROSALICYLIC ACID]

From ChEMBL document CHEMBL1152236 (Bioorg Med Chem, 2008)
